Test results taken from patent US4868195A, “Novel enolamides, pharmaceutical compositions and methods of use thereof for activity as modulators of the arachidonic acid cascade” (Warner-Lambert Company, priority 1988, dated 1989).
Values joined by “and” are separate entries in the source; they are usually repeats but may differ in a detail not shown here. Equal entries are not always repeated.

Key:
[1] = biological target: T1, human leukocyte 5-lipoxygenase (Homo sapiens, UniProt P09917); experiment: 5-lipoxygenase inhibition in human leukocytes, 5-HETE formation (5LOA; methods 5LOA1 and 5LOA2); format: cell-based; details: 5-HETE formation, human leukocytes; read-out: Concentration (M) for 50.0 % Inhibition, IC (5LOA)
T1 construct: endogenous in cells; host or cells: intact leukocytes isolated from human blood
T1 sequence (P09917 1-674): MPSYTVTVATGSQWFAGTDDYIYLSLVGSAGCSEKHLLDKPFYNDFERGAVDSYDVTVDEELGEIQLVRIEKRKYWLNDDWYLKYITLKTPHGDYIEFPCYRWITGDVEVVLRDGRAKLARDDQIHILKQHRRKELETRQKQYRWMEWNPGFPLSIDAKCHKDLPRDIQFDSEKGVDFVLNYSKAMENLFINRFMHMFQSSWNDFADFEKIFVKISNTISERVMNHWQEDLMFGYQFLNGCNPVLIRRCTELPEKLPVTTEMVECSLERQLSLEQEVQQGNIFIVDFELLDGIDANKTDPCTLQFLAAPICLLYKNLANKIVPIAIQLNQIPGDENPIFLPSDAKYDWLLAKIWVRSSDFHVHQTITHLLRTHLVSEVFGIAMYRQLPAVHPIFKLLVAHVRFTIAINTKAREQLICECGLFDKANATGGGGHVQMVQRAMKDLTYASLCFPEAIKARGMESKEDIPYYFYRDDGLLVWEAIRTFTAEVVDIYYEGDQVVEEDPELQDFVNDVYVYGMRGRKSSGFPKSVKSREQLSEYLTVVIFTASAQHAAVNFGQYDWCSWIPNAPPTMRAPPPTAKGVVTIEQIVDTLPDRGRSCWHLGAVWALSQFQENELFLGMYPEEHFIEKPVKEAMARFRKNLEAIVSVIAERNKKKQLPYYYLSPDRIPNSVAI
Source text: To Evaluate the Effect of Each Compounds as a 5-Lipoxygenase Inhibitor in Comparison to Standard Reference Agents in Human Leukocytes (5LOA1)
The purpose of this assay is to evaluate the activity of each compound as an inhibitor of human leukocyte 5-lipoxygenase.
Arachidonic acid and calcium ionophore A23187 are obtained from Sigma (St. Louis, MO). Silica gel plates, GF are obtained from Analtech (Newark, DE). Arachidonic acid, (1-^14 C) and 5-HETE (^3 H), 5 (S)-hydroxy-6-trans,8,11,14-cis eicosatetraenoic acid, are obtained from New England Nuclear (Boston, MA). Six percent Dextran-70 in 0.9% NaCl is obtained from Cutter Labs (Berkeley, CA).
Preparation of Leukocytes
Fresh blood from normal adult men who had not received any drugs for at least the previous five days is obtained by the Community Research Clinic (WL/PD) using venipuncture and collected into heparinized vacuotainer tubes. To every 100 ml of pooled blood is added 25 ml of dextran solution (6% dextran -70 in 0.9% sodium chloride containing 3% dextrose) and this is mixed gently in a plastic cylinder. The mixture is left to stand at room temperature for at least 90 minutes. The upper layer which is rich in leukocytes and platelets is then carefully decanted into 50 ml plastic tubes and centrifuged at about 100×g for eight minutes in an IEC centrifuge and rotor number 269 (about 600 rpm). The supernatant fluid is discarded and the pellet is resuspended in 10 ml of 0.87% ammonium chloride for exactly two minutes. This procedure is to lyse completely contaminating red blood cells. Leukocytes are then separated by centrifugation for ten minutes. The pellet is washed three times by suspension in 20 ml PBS (sodium chloride, 7.1 g; Na2 HPO4, 1.15 g; KH2 PO4, 0.2 g, and KCl, 0.2 g/L) and centrifuged as before. The final pellet is suspended in PBS containing 0.87 mM CaCl2. Viability of the cells is then checked using trypan blue exclusion method and is found to be over 90%.
5-Lipoxygenase Enzyme Assay
Leukocyte cells in suspension (0.98 ml) are incubated with or without test compounds for five minutes at 37° C. in a shaking water bath. At this time a 17 μl mixture is prepared per 1 ml of cell suspension: 100 mM arachidonic acid, 1 μl, 0.05 μCi ^14 C-arachidonic acid in 5 μl; 1 mM calcium ionophore A23187, 10 μl (1). This mixture is added and the incubation continued for five minutes. The reaction is stopped by adding four volumes of absolute ethanol and the mixture is kept in ice for 30 minutes. The floculated precipitate is separated by centrifugation at about 37,000×g for 20 minutes (Beckman Instruments rotor number 40). The alcohol extract is taken to dryness under a stream of nitrogen and the residue is dissolved in 100-200 μl absolute ethanol. At the time any turbidity is removed by centrifugation. An aliquot (25-50 μl) is applied onto 20×20 cm silica gel TLC plate and developed using the following solvent system: diethyl ether, petroleum ether (2040° C.), acetic acid (50:50:1 v/v). Zones of 1 cm apart are scraped from the TLC plate and transferred to mini-vials. Methanol (0.5 ml) is added to dissolve the radioactivity adsorbed to the silica gel and scintillation fluid (H. P., Beckman), 5 ml is then added and vials are counted in a liquid scintillation counter. A sample of ^3 H-5-HETE is applied and used for the identification of the formed 5-HETE.
Total radioactivity in the test as well as the control samples are normalized and the amount of 5-HETE present is calculated accordingly.
IC50 values are defined as the concentrations of test agents which caused a 50% inhibition of the formation of 5-HETE as compared to control and are determined by inspection of the concentration-response curves.
5-Lipoxygenase Assay Using Isolated Human Leukocytes (5LOA2)
The formation of 5-HETE in human leukocytes is considered a measure of 5-lipoxygenase activity. The protocol is described in the following. […]

[2] = biological target: Human Leukocyte Lipoxygenase; experiment: Human Leukocyte Lipoxygenase Assay (LDA-H); format: biochemical; details: for IC50: acetone-pentane powder enzyme, 234 nm, 24° C., 5 min preincubation, read-out: Concentration (M) for 50.0 % Inhibition, IC (LDAH); for % Inhibition (LDAH): Concentration 2.50 E -5 M
Procedure: Human Leukocyte Lipoxygenase Assay (LDA-H)
Whole blood is collected from normal volunteers and spun in a refrigerated centrifuge for four minutes at 1°-6° C. at 3800 g. The buffy coat is manually separated and washed twice with chilled 0.83% NH4 Cl and centrifuged at 1000 RPM for ten minutes at 4° C. The white cell is suspended in culture media-EMEM supplemented with 6% Agamma human serum, tricine buffer, and neomycin and recentrifuged at 1000 g to yield a pellet containing the leukocytes used for the preparation of the acetone pentane powder.
The acetone-pentane powder is prepared utilizing a modification of the procedure reported for human platelet lipoxygenase. See Siegel, et al, Arachidonate Metabolism via Lipoxygenase and 12-L-hydroperoxy-5 Eicosatetraenoic Acid Peroxidase Sensitive to Antiinflammatory Drugs, Proc. Natl. Acad. Sci., USA 77: 308, 1980 and D. P. Wallach and V. R. Brown, A Novel Preparation of Human Platlet Lipoxygenase, Biochem. Biophys. Acta. 663: 361, 1981. Buffy coat prepared above is resuspended in 5-7 volumes of cold 0.1M Tris buffer, pH 7.4 containing 0.154M NaCl. The suspension is centrifuged at 13,300 g for ten minutes at 4° C. The resultant pellet is retained, resuspended in five volumes of cold acetone, recentrifuged at 13,300 g and resuspended in five volumes of cold pentane. The pentane suspension is centrifuged for ten minutes at 13,300 g to give a pellet which is dried in the cold under vacuum with periodic pulverization. The dry powder is stable for several weeks when stored at -80° C.
Enzyme stock solution is prepared in the following manner. About 15 mg of the acetone-pentane powder is suspended in 4 ml of cold tris buffer (0.1M, pH 7.4), allowed to stand for five minutes, and homogenized thoroughly. The homogenate is sonicated three times for 15 seconds each time, diluted to 7 ml with cold tris buffer (0.1M, pH 7.4), and centrifuged at 4° C. for 60 minutes at 13,300 g. the supernatent is retained and diluted to a total of 10 ml with cold tris buffer (0.1M, pH 7.4) to give the stock enzyme solution. Additional dilutions of 2-50 fold are done as necessary to locate optimal enzyme reaction rate in the assay described below.
Substrate solution is prepared at 100 μM or 1.0 μM concentrations of arachidonic acid or linoleic acid in 0.1M tris buffer, pH 9.0 containing 20% ethanol.
The enzyme reaction is followed spectrophotometrically by the appearance of a conjugated diene product at 234 nm. The reaction is monitored at 24° C. using a Gilford Model 2600 spectrophotometer. […] The effects of inhibitors on the reaction are compared with control reactions run under indentical conditions. Routinely, each compounds of the present invention is incubated with the enzyme for five minutes prior to addition of substrate to initiate the reaction. Inhibition expressed as IC50 as molar concentration of the compound required to reduce reaction rate to 50% control.

| Structure (SMILES) | IC50 [1] | IC50 [2] [M] | % Inhibition (LDAH) [2] [%] |
| --- | --- | --- | --- |
| O=C(Nc1ccc(CCc2ccc(O)c(O)c2)cc1)c1oc2ccc3ccccc3c2c1O [Example 122, Naphtho[2,1-b]furan-2-carboxamide, N-[4-[2-(3,4-dihydroxyphenyl)ethyl]phenyl]-1-hydroxy-] | 7.6e-07 M | 2.3e-06 |  |
| O=C(Nc1ccc(CCc2ccc(O)c(O)c2)cc1)C(=O)C1=C(O)c2ccccc2S(=O)(=O)C1 [Example 6, N-[4-[2-(3,4-Dihydroxyphenyl)ethyl]phenyl]-4-hydroxy-α-oxo-2H-1-benzothiopyran-3-acetamide, 1,1-dioxide] | 2e-05 M and 2.1e-05 M |  |  |
| COc1ccc(CCc2ccc(NC(=O)c3oc4c5ccccc5n(C)c4c3O)cc2)cc1OC [Example 161, 4H-Furo[3,2-b]indole-2-carboxamide, N-[4-[2-(3,4-dimethoxyphenyl)ethyl]phenyl]-3-hydroxy-4-methyl] | 9e-06 M |  |  |
| COc1ccc(CCc2ccc(NC(=O)C(=O)c3oc4ccccc4c3O)cc2)cc1OC [Example 121, 2-Benzofuranacetamide, N-[4-[2-(3,4-dimethoxyphenyl)ethyl]phenyl]-3-hydroxy-α-oxo] | 7.6e-06 M | 1.6e-06 |  |
| O=C(Nc1ccc(CCc2ccc(O)c(O)c2)cc1)C(=O)C1Oc2ccccc2C1=O (stereo not drawn) [Example 126, 2-Benzofuranacetamide, N-[4-[2-(3,4-Dihydroxyphenyl)ethyl]phenyl]-2,3-dihydro-α,3-dioxo-] | 3.55e-06 M and 2.17e-06 M |  |  |
| O=C(Nc1ccc(CCc2ccc(O)c(O)c2)cc1)C(=O)C1Oc2cc3ccccc3cc2C1=O (stereo not shown) [Example 129] | 5e-07 M | 1.6e-06 |  |
| Cn1c2ccccc2c2oc(C(=O)Nc3ccc(CCc4ccc(O)c(O)c4)cc3)c(O)c21 [Example 159, 4H-Furo[3,2-b]indole-2-carboxamide, N-[4-[2-(3,4-Dihydroxyphenyl)ethyl]phenyl]-3-hydroxy-4-methyl] | 1.18e-06 M |  |  |
| O=C(Nc1ccc(CCc2ccc(O)c(O)c2)cc1)C1Oc2c(n(-c3ccccc3)c3ccc(O)cc23)C1=O (stereo not shown) [Example 163, 2H-Furo[3,2-b]indole-2-carboxamide, N-[4-[2-(3,4-dihydroxyphenyl)ethyl]phenyl]-3,4-dihydro-7-hydroxy-3-oxo-4-phenyl] | 5e-07 M |  | 0.0 |
| COc1cc(CCc2ccc(NC(=O)C3Oc4ccc5ccccc5c4C3=O)cc2)ccc1O (stereo not shown) [Example 110, Naphtho[2,1-b]furan-2-carboxamide, N-[4-[2-(4-hydroxy-3-methoxyphenyl)ethyl]phenyl]-1,2-dihydro-1-oxo] | 6.04e-06 M and 6.35e-06 M |  |  |
| O=C(Nc1ccc(CCc2ccc(O)c(O)c2)cc1)C(=O)C1=C(O)c2ccccc2OC1 [Example 150] | 1.8e-06 M | 4.7e-06 |  |
| COc1ccc(CCc2ccc(NC(=O)C3Oc4cc5ccccc5cc4C3=O)cc2)cc1OC (stereo not shown) [Example 101, Naphtho[2,3-b]furan-2-carboxamide, N-[4-[2-(3,4-dimethoxyphenyl)ethyl]phenyl]-2,3-dihydroxy-3-oxo] | 8.5e-06 M |  | 0.0 |
| O=C(Nc1ccc(CCc2ccc(O)c(O)c2)cc1)c1oc2ccccc2c1O [Example 124, 2-Benzofurancarboxamide, N-[4-[2-(3,4-dihydroxyphenyl)ethyl]phenyl]-3-hydroxy] | 4.2e-06 M | 6.5e-06 |  |
| O=C(Nc1ccc(CCc2ccc(Cl)cc2)cc1)c1sc2ccccc2c1O [Example 145, Benzo[b]thiophene-2-carboxamide, N-[4-[2-(4-chlorophenyl)ethyl]phenyl]-3-hydroxy] | 1.21e-05 M |  |  |
| O=C(Nc1ccc(CCc2ccc(O)c(O)c2)cc1)c1oc2c(ccc3ccccc32)c1O [Example 125, Naphtho[1,2-b]furan-2-carboxamide, N-[4-[2-(3,4-dihydroxyphenyl)ethyl]phenyl]-3-hydroxy] | 4.01e-06 M | 6.1e-06 |  |
| COc1ccc2c(c1)c1c(n2-c2ccccc2)C(=O)C(C(=O)Nc2ccc(CCc3ccc(OC)c(OC)c3)cc2)O1 (stereo not shown) [Example 158] | 4.8e-06 M |  |  |
| COc1cc(C=Cc2ccc(NC(=O)C3=C(O)c4ccccc4S(=O)(=O)N3C)cc2)ccc1O [Example 87, 2H-1,2-Benzothiazine-3-carboxamide, 4-hydroxy-N-[4-[2-(4-hydroxy-3-methoxyphenyl)ethenyl]phenyl]-2-methyl, 1,1-dioxide] | 4e-07 M |  |  |
| COc1cc(CCc2ccc(NC(=O)C3=C(O)c4ccccc4S(=O)(=O)C3)cc2)ccc1O [Example 70, 2H-1-Benzothiopyran-3-carboxamide, 4-hydroxy-N-[4-[2-(4-hydroxy-3-methoxyphenyl)ethyl]phenyl]-, 1,1-dioxide] | 5e-06 M |  |  |
